In patent publication US20150238487A1, “NOVEL ERGOLINE DERIVATIVES AND USES THEREOF” (MAP Pharmaceuticals, Inc., priority 2012, published 2015):

How the values were obtained:
[1] = molecular target: T1, Adrenergic α1A (Homo sapiens, UniProt P35348); assay: Aequorin assay, Adrenergic α1A; assay type: cell-based; details: antagonism, CHO-K1 mAeq, read-out: Activity (Antagonism: IC50), Adrenergic a1A
T1 construct: expressed in transfected cells; host or cells: CHO-K1 mAeq
Method: (§1) Receptor […] activity assays were performed using 8′OH-2-CF3-dihydroergotamine (8′OH-2-CF3-DHE). Table 1 summarizes the cell lines (CHO-K1/HEK293 transfected with relevant human receptor) and the assays performed to detect any agonist or antagonist activity.
(§2) Aequorin assays were conducted to monitor activity for 8′OH-2CF3-dihydroergotamine (8′OH-2CF3-DHE) against the receptors indicated in Table 1 above (except for mGlu3 and mGlu5). CHO-K1 cells coexpressing mitochondrial apoaequorin and the recombinant human receptor of interest were grown to mid-log phase in culture media without antibiotics and then detached with PBS-EDTA, centrifuged and resuspended in assay buffer (DMEM/HAM's F12 with HEPES, without phenol red+0.1% BSA, protease free) at a concentration of 1×10^6 cell/mL. […]
(§3) 50 μL of the cell suspension was mixed with 50 μL of test or reference agonist in a 96-well plate. The resulting emission of light was recorded using Hamamatsu Functional Drug Screening System 6000 (FDSS 6000) luminometer. […]
(§4) To standardize the emission of recorded light (and determine of the “100% signal”) across plates and across different experiments, some wells contained 100 μM digitonin or a saturating concentration of ATP (20 μM).

[2] = molecular target: T2, Dopamine D4 (Homo sapiens, UniProt P21917); assay: GTPγ[35S] assay, Dopamine D4; assay type: biochemical; details: antagonism, CHO-K1 membranes
T2 construct: expressed in transfected cells; host or cells: CHO-K1 (membrane extracts)
Method: as §1
GTPγS studies were conducted to monitor agonist activity for 8′OH-2CF3-dihydroergotamine (8′OH-2CF3-DHE) against the receptors indicated in Table 1 above. Reagents used were the following: Assay buffer (20 mM HEPES, pH 7.4; 100 mM NaCl; 10 μg/mL saponin; 30 mM MgCl2); Membranes (recombinant human receptor membrane extracts were thawed on ice and diluted in assay buffer to give 1000 μg/mL ([…]) and kept on ice); GDP (diluted in assay buffer to give 30 μM solution (3 μM final concentration); beads (PVT-WGA (Amersham, RPNQ001), diluted in assay buffer at 25 mg/mL (0.25 mg/10 μL)); GTPγ^35S (Perkin Elmer, NEG030X), diluted in assay buffer to give 0.1 nM (final concentration); and ligand (agonist/antagonist diluted in assay buffer).
Membranes were mixed with GDP (1:1) and incubated for at least 15 minutes on ice. In parallel GTPγ^35S was mixed with the beads (1:1) just before starting the reaction. […] The plates were then centrifuged for 10 minutes at 2000 rpm and incubated at room temperature for 1 hour and counted for 1 min/well with a Perkin Elmer TopCount reader.

[3] = tested on: Glutamate (mG1u3/mG1u5/mG1u7); assay: Glutamate receptor assays (Aequorin mGlu3/mGlu5, cAMP mGluR7); assay type: cell-based, human; details: Aequorin (mGluR3, mGluR5)
Method: Receptor […] activity assays were performed using 8′OH-2-CF3-dihydroergotamine (8′OH-2-CF3-DHE). Table 1 summarizes the cell lines (CHO-K1/HEK293 transfected with relevant human receptor) and the assays performed to detect any agonist or antagonist activity. […]
For agonist testing, 30 μL of cell suspension was mixed with 30 μL of test or reference agonist in a 384-well plate. The resulting emission of light was recorded using Hamamatsu Functional Drug Screening System 6000 (FDSS 6000) luminometer. […] The resulting emission of light was recorded using Hamamatsu Functional Drug Screening System 6000 (FDSS 6000) luminometer.
cAMP HTRF (Gi) studies were conducted to monitor activity for 8′OH-2CF3-dihydroergotamine (8′OH-2CF3-DHE) against the receptors indicated in Table 1 above. […] Lysis buffer was added and after a 1 hour incubation, cAMP concentrations was determined according to the manufacturer specification with the HTRF kit. […] Lysis buffer was added and after a 1 hour incubation, cAMP concentrations were determined according to the manufacturer specification, with the HTRF kit.

[4] = molecular target: T3, CCK2 (Homo sapiens, UniProt P32239); assay: Aequorin assay, Cholecystokinin CCK2; assay type: cell-based; details: antagonism, CHO-AEQ
T3 construct: expressed in transfected cells; host or cells: CHO-AEQ
Method: as §1, §2, §3, §4

T1 sequence (P35348 whole entry): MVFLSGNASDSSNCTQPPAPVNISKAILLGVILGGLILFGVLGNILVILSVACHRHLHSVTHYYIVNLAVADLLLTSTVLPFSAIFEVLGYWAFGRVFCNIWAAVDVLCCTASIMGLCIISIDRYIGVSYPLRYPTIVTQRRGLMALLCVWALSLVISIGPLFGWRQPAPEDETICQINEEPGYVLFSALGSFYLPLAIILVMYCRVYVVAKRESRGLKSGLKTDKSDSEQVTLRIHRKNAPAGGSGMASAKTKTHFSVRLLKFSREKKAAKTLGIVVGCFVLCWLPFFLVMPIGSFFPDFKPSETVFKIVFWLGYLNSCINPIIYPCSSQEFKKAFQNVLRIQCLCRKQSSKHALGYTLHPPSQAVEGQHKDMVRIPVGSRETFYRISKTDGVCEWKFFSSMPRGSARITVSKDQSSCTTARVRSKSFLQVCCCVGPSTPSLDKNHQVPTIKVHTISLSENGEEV
T3 sequence (P32239 whole entry): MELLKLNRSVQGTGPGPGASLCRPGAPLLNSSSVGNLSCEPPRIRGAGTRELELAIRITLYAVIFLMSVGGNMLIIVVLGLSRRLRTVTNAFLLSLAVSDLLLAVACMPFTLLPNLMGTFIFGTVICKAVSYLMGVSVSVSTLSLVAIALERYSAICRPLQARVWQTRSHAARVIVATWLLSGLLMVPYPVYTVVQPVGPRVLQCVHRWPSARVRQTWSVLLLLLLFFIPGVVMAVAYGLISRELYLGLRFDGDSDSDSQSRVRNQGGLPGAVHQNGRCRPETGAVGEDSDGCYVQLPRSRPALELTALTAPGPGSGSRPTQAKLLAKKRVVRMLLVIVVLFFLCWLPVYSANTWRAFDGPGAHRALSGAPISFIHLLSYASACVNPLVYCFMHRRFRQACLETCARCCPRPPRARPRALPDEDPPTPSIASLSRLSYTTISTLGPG
T2 sequence (P21917 whole entry): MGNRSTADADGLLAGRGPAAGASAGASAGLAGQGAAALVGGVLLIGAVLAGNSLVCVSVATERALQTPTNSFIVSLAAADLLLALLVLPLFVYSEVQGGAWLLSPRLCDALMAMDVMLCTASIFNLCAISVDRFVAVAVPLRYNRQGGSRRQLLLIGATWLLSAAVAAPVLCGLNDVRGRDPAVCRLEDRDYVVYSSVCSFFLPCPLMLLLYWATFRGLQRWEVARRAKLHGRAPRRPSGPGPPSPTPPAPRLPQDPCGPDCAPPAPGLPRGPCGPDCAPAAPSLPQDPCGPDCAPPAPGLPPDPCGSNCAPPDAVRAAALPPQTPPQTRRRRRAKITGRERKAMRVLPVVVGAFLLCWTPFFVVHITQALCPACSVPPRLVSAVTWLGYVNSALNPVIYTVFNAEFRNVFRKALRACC

Q: `CN1C[C@H](C(=O)N[C@]2(C)O[C@@]3(O)[C@@H]4CC[C@@H](O)N4C(=O)[C@H](Cc4ccccc4)N3C2=O)C[C@@H]2c3cccc4[nH]c(C(F)(F)F)c(c34)C[C@H]21` [8′OH-2-CF3-DHE, 8′-Hydroxy-2-CF3-dihydroergotamine] was tested. Which IC50 [1] did it give?
A: 39.5 nM

Q: What about the IC50 [2] of the same molecule?
A: > 10 µM

Q: What about the “Activity (Agonism: EC50; Antagonism: IC50), Glutamate (mG1u3/mG1u5/mG1u7)” value [3] of the same molecule?
A: Inactive

Q: And the IC50 [4]?
A: > 10 µM
